Data as given in patent US20050222158A1, “Method of treating migraine headaches using calcitonin gene related peptide mimetics” (priority 2004, published 2005).

Target: T1, human CGRP receptor (Homo sapiens, UniProt O60894+Q16602)
T1 construct: SK-N-MC cells that endogenously express the human CGRP receptor; endogenous in cells; host or cells: SK-N-MC cells (membrane homogenates)
Assay: [125I]-CGRP radioligand binding assay, SK-N-MC cell homogenates
Settings: 40 pM [125I]-CGRP, room temperature
Description: Tissue culture. SK-N-MC cells were grown at 37° C. in 5% CO2 as a monolayer in medium consisting of MEM with Earle's salts and L-glutamine (Gibco) supplemented with 10% fetal bovine serum (Gibco). Radioligand binding assays. Cells were rinsed twice with phosphate-buffered saline (155 mM NaCl, 3.3 mM Na2HPO4, 1.1 mM KH2PO4, pH 7.4), and incubated for 5-10 min. at 4° C. in hypotonic lysis buffer consisting of 10 mM Tris (pH 7.4) and 5 mM EDTA. Cells were transferred from plates to polypropylene tubes (16×100 mm), homogenized and centrifuged at 32,000×g for 30 min. Pellets were resuspended in buffer consisting of 50 mM Tris (pH 7.4) and 1 mM EDTA, homogenized, and centrifuged again at 32,000×g for 30 min. Pellets were resuspended in 100 mM Tris-Cl pH 7.5, 10 mM MgCl2, 0.1% mammalian protease inhibitor cocktail (Sigma) and stored at −80° C. until needed. On the day of an experiment, homogenates were thawed and homogenized again. Binding of [^125I]-CGRP (NEN) was carried out in buffer containing 50 mM Tris-Cl pH 7.5, 5 mM MgCl2, 0.5% BSA. Homogenates (3.5 μg protein/well) were incubated with competitor compounds (solubilized in 100% DMSO at 100× their final assay concentrations) for one hour at room temperature. Then [^125I]-CGRP was added (40 pM final concentration) and the reaction incubated for one additional hour at room temperature. […]

T1 sequence (Q16602 23-461): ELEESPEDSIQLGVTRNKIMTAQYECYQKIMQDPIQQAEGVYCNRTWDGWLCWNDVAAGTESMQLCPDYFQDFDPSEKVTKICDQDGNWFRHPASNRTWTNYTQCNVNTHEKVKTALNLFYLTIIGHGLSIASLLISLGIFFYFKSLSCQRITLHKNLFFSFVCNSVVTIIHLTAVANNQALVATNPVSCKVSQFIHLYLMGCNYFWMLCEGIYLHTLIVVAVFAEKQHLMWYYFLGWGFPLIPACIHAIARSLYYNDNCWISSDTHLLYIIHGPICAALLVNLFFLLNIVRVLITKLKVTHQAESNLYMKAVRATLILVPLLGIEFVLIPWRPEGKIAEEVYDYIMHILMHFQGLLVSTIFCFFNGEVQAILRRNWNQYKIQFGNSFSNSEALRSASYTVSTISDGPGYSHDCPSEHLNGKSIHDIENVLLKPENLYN
T1 sequence (O60894 27-148): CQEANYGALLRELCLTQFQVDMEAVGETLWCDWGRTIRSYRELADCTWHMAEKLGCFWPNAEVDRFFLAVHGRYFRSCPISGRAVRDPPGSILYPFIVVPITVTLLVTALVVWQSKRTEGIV

## CC(=O)c1ccc(NC(=O)N2CCC(=O)N3[C@@H]2CN(CCc2cccc(F)c2)C(=O)[C@@H]3CC(=O)OC2[C@H]3C[C@@H]4C[C@@H](C[C@H]2C4)C3)cc1 (stereo partly drawn) [Compound 29, {1-(4-Acetyl-phenylcarbamoyl)-(6S,9aS)-8-[2-(3-fluoro-phenyl)-ethyl]-4,7-dioxo-octahydro-pyrazino[1,2a]pyrimidin-6-yl}-acetic acid adamantan-2-yl ester]
  IC50: 5160 nM
